The text below walks through data of patent US9474755B2, “GLP-1 receptor modulators” (Receptos, Inc., priority 2014, dated 2016).

pEC50: −log10 of the molar value.

T1 sequence (P43220 24-463): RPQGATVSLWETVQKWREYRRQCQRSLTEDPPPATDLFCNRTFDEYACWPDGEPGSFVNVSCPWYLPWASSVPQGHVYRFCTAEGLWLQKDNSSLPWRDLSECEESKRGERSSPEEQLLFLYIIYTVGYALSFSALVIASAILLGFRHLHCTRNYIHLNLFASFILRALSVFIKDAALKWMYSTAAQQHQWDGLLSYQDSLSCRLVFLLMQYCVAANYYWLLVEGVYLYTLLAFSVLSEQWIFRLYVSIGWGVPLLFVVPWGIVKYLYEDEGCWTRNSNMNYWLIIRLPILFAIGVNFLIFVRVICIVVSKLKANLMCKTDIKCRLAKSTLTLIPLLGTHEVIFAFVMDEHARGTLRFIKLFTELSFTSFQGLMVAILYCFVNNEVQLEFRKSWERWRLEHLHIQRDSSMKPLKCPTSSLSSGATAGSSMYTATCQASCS
T1 sequence (P01275 100-127 partner limits assumed): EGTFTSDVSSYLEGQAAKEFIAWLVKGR

This test addresses T1, GLP-1R (Homo sapiens, UniProt P43220).
T1 construct: host or cells: CRE-bla CHO-K1
Nature of the test: EC20 GLP-1(9-36) PAM cAMP Assay: dose response of compound in the presence of fixed concentration of GLP-1(9-36). It is filed as cell-based. To be noted: GLP-1R CRE-bla CHO-K1 cells, in presence of fixed concentration of GLP-1(9-36), 30 min at 37° C. The protocol: EC20 GLP-1(9-36) PAM cAMP Assay: Dose Response of Compound in the Presence of Fixed Concentration of GLP-1 (9-36).
GLP-1R CRE-bla CHO-K1 cells cultured in growth medium (DMEM-High glucose, 10% dialyzed FBS, 0.1 mM NEAA, 25 mM Hepes, 100 U/mL penicillin/100 μg/mL streptomycin, 5 μg/mL Blasticidin, 600 μg/mL Hygromycin) were trypsinized and plated in suspension into 384 well white flat bottom plates at 5000 cells/well in 12 μL assay buffer (Hanks Balanced Salt solution, 10 mM Hepes, 0.1% BSA, 10 pH 7.4). A 5× compound dose response curve (12-point) was generated in assay buffer containing 1.5 mM IBMX, 4% DMSO. GLP-1(9-36) was diluted to 4.2 μM in assay buffer containing 1.5 mM IBMX and 4% DMSO. The 5× compound dose response was added (3 μL), followed by 0.5 μL of GLP-1(9-36) and cells were incubated for 30 min at 37° C. Direct detection of cAMP was carried out using DiscoveRx HitHunter cAMP kit according to manufacturer's instructions and luminescence was read using a SpectraMax M5 plate reader. Luminescence was converted to total cAMP using a cAMP standard curve and data was analyzed by non-linear regression to determine the EC50 and Emax.
As for `CCCC1CCC(C2CC=C(c3cnc(-c4ccc(C[C@H](NC(=O)c5ccc(C(C)(C)C)s5)C(=O)S(C)(=O)=O)cc4)nc3)CC2)CC1` (stereo partly drawn) [Compound 79], the pEC50 is over 6.30. For `COC(=O)C1CC=C(c2cnc(-c3ccc(C[C@H](NC(=O)c4ccc(C(C)(C)C)s4)C(=O)N[C@H](C)C(=O)O)cc3)nc2)CC1` (stereo partly drawn) [Compound 62] the value was over 6.30; for `CCO[C@H]1CC[C@@H](C2CC=C(c3cnc(-c4ccc(C[C@H](NC(=O)c5ccc(C(C)(C)C)s5)C(=O)N5CC(C(=O)O)C5)cc4)nc3)CC2)CC1` (stereo partly drawn) [Compound 83], over 6.30. For `CCCC1CCC(C2CCC(c3cnc(-c4ccc(C[C@H](NC(=O)c5ccc(C(C)C)s5)C(=O)N5CC(C(=O)O)C5)cc4)nc3)CC2)CC1` (stereo partly drawn) [Compound 16] the value was 5.60 to 6.30; for `CC[C@H]1CC[C@H](C2CC=C(c3cnc(-c4ccc(C[C@H](NC(=O)c5ccc(C(C)(C)C)cc5)C(=O)N5CC(C(=O)O)C5)cc4)nc3)CC2)CC1` (stereo partly drawn) [Compound 94], over 6.30. Take `CC[C@H]1CC[C@H](C2CC=C(c3cnc(-c4ccc(C[C@H](NC(=O)c5ccc(C(C)(C)C)s5)C(=O)NCC5CCNC5)cc4)nc3)CC2)CC1` (stereo partly drawn) [Compound 108]: the pEC50 was 5.60 to 6.30. For `CCCC1CCC(C2CC=C(c3cnc(-c4ccc(C[C@H](NC(=O)c5ccc(C6(C)CC6)cc5)C(=O)N5CC(C(=O)O)C5)cc4)nc3)CC2)CC1` (stereo partly drawn) [Compound 26], the pEC50 is over 6.30.

As to `CC1(C)COC2(CC=C(c3cnc(-c4ccc(CC(NC(=O)c5ccc(C(C)(C)C)s5)C(=O)N5CC(C(=O)O)C5)cc4)nc3)CC2)OC1` (stereo not drawn) [Compound 43], the negative-log EC50 (pEC50) was 5.00 to 5.30. With `CC[C@H]1CC[C@H](C2CC=C(c3cnc(-c4ccc(C[C@H](NC(=O)c5ccc(C(F)(F)F)cc5)C(=O)N5CC(C(=O)O)C5)cc4)nc3)CC2)CC1` (stereo partly drawn) [Compound 100], the pEC50 was over 6.30. In the case of `C[C@@H](NC(=O)[C@H](Cc1ccc(-c2ncc(C3=CC4CC[C@]3(C)C4(C)C)cn2)cc1)NC(=O)c1ccc(C(C)(C)C)s1)C(=O)O` [Compound 58] it was 5.30 to 5.60.

On to `COC1CCC(C2CC=C(c3cnc(-c4ccc(C[C@H](NC(=O)c5ccc(C(C)(C)C)s5)C(=O)N5CC(C(=O)O)C5)cc4)nc3)CC2)CC1` (stereo partly drawn) [Compound 48], for which the negative-log EC50 (pEC50) is 5.60 to 6.30. In the case of `C[C@@H](NC(=O)[C@H](Cc1ccc(-c2ncc(C3=CC(C)(C)CC(C)(C)C3)cn2)cc1)NC(=O)c1ccc(C(C)(C)C)s1)C(=O)O` [Compound 59] it was over 6.30; in that of `CC[C@H]1CC[C@H](C2CC=C(c3cnc(-c4ccc(C[C@H](NC(=O)c5ccc(C(C)(C)C)s5)C(=O)N5CC(C(=O)O)C5)cc4)nc3)CC2)CC1` (mixture of isomers) [Compound 76, 1-((S)-2-(5-(tert-butyl)thiophene-2-carboxamido)-3-(4-(5-((1RS,1′r,4′RS)-4′-ethyl-[1,1′-bi(cyclohexan)]-3-en-4-yl)pyrimidin-2-yl)phenyl)propanoyl)azetidine-3-carboxylic acid], over 6.30. Consider `CC1(C)CCC(C2CC=C(c3cnc(-c4ccc(C[C@H](NC(=O)c5ccc(C(C)(C)C)s5)C(=O)N5CC(C(=O)O)C5)cc4)nc3)CC2)CC1` (stereo partly drawn) [Compound 90], for which the pEC50 is over 6.30. For `CCCC1CCC(C2CC=C(c3cnc(-c4ccc(C[C@H](NC(=O)c5ccc(OC(C)C)cc5)C(=O)N5CC(C(=O)O)C5)cc4)nc3)CC2)CC1` (stereo partly drawn) [Compound 27] the value was over 6.30; for `CC[C@H]1CC[C@H](C2CC=C(c3cnc(-c4ccc(C[C@H](NC(=O)c5ccc(C6CC6)cc5)C(=O)N5CC(C(=O)O)C5)cc4)nc3)CC2)CC1` (stereo partly drawn) [Compound 104], over 6.30.

Take `CC[C@H]1CC[C@H](C2CC=C(c3cnc(-c4ccc(C[C@H](NC(=O)c5ccc(CC(C)C)s5)C(=O)N5CC(C(=O)O)C5)cc4)nc3)CC2)CC1` (stereo partly drawn) [Compound 96]: the negative-log EC50 (pEC50) is over 6.30. In the case of `C[C@@H](NC(=O)[C@H](Cc1ccc(-c2ncc(C3=CCCCC3)cn2)cc1)NC(=O)c1ccc(C(C)(C)C)s1)C(=O)O` [Compound 54] it was 5.00 to 5.30; in that of `CCCC1CCC(C2CC=C(c3cnc(-c4ccc(C[C@H](NC(=O)c5ccc(C(C)(C)C)nc5)C(=O)N5CC(C(=O)O)C5)cc4)nc3)CC2)CC1` (stereo partly drawn) [Compound 29], 5.60 to 6.30; in that of `CCCCCC1CC=C(c2cnc(-c3ccc(C[C@H](NC(=O)c4ccc(C(C)(C)C)s4)C(=O)N4CC(C(=O)O)C4)cc3)nc2)CC1` (stereo partly drawn) [Compound 38], 5.60 to 6.30. In the case of `CCC[C@H]1CC[C@H](C2CC=C(c3cnc(-c4ccc(C[C@H](NC(=O)c5ccc(C6CC6)s5)C(=O)N5CC(C(=O)O)C5)cc4)nc3)CC2)CC1` (stereo partly drawn) [Compound 117] it was over 6.30. Take `CC[C@H]1CC[C@H](C2CC=C(c3cnc(-c4ccc(C[C@H](NC(=O)c5ccccc5)C(=O)N5CC(C(=O)O)C5)cc4)nc3)CC2)CC1` (stereo partly drawn) [Compound 99]: the pEC50 is 5.60 to 6.30. `CCCC1CCC(C2CC=C(c3cnc(-c4ccc(C[C@@H](NC(=O)c5ccc(C(C)(C)C)s5)C(=O)N5CC(C(=O)O)C5)cc4)nc3)CC2)CC1` (stereo partly drawn) [Compound 81, 1-((2R)-2-(5-(tert-butyl)thiophene-2-carboxamido)-3-(4-(5-(4′-propyl-[1,1′-bi(cyclohexan)]-3-en-4-yl)pyrimidin-2-yl)phenyl)propanoyl) azetidine-3-carboxylic acid]: the negative logarithm of the EC50 (pEC50) is 5.60 to 6.30. On to `CCCc1ccc(C2CC=C(c3cnc(-c4ccc(C[C@H](NC(=O)c5ccc(C(C)(C)C)s5)C(=O)O)cc4)nc3)CC2)cc1` (stereo partly drawn) [Compound 121], for which the pEC50 was over 6.30. With `CCC[C@H]1CC[C@H](C2CC=C(c3cnc(-c4ccc(C[C@H](NC(=O)c5ccc(C(C)(C)C)cc5)C(=O)N5CC(C(=O)O)C5)cc4)nc3)CC2)CC1` (mixture of isomers) [Compound 14, 1-((S)-2-(4-(tert-butyl)benzamido)-3-(4-(5-((1RS,1′s,4′RS)-4′-propyl-[1,1′-bi(cyclohexan)]-3-en-4-yl)pyrimidin-2-yl)phenyl)propanoyl)azetidine-3-carboxylic acid], the negative logarithm of the EC50 (pEC50) is over 6.30. For `CCCCCC1CCC(C2CC=C(c3cnc(-c4ccc(C[C@H](NC(=O)c5ccc(C(C)(C)C)s5)C(=O)N5CC(C(=O)O)C5)cc4)nc3)CC2)CC1` (mixture of isomers) [Compound 4, 1-((2S)-2-(5-(tert-butyl)thiophene-2-carboxamido)-3-(4-(5-(4′-pentyl-[1,1′-bi(cyclohexan)]-3-en-4-yl)pyrimidin-2-yl)phenyl)propanoyl)azetidine-3-carboxylic acid] the value was over 6.30; for `CCCC1CC=C(c2cnc(-c3ccc(C[C@H](NC(=O)c4ccc(C(C)(C)C)s4)C(=O)N[C@H](C)C(=O)O)cc3)nc2)CC1` (stereo partly drawn) [Compound 52], 5.60 to 6.30; for `C[C@@H](NC(=O)[C@H](Cc1ccc(-c2ncc(C3=CCC(NC(=O)OC(C)(C)C)CC3)cn2)cc1)NC(=O)c1ccc(C(C)(C)C)s1)C(=O)O` (stereo partly drawn) [Compound 64], 5.30 to 5.60. With `CCCC1CCC(C2CC=C(c3cnc(-c4ccc(C[C@H](NC(=O)c5ccc(C(C)(C)C)s5)C(=O)N5CCC[C@H]5C(=O)O)cc4)nc3)CC2)CC1` (stereo partly drawn) [Compound 8], the pEC50 was over 6.30. Turning to `CCCC1CCC(C2CC=C(c3cnc(-c4ccc(C[C@H](NC(=O)c5ccc(C(C)C)cc5)C(=O)N5CC(C(=O)O)C5)cc4)nc3)CC2)CC1` (stereo partly drawn) [Compound 13], the pEC50 was over 6.30.

By pEC50 is commonly meant the EC50 on a negative log10 scale, so that one unit is a factor of ten.
